Experimental data reported in article PMC10908623, “X-ray structure and characterization of a probiotic Lactobacillus rhamnosus Probio-M9 L-rhamnose isomerase” (Applied Microbiology and Biotechnology, 2024).

Legend:
[1] = target: T1, LrL-RhI (L. rhamnosus Probio-M9 L-rhamnose isomerase) (Lacticaseibacillus rhamnosus, UniProt A0A171J5T1); assay: X-ray crystal structure of the complex (soaking), […] Å; format: binding; conditions: 30% (w/v) D-allose soak; Mn2+; crystals at pH 6.5; catalytic site; also a surface site
T1 construct: gene rhaA; full length, 426 residues, 48707 Da; synthesized gene in pQE60, C-terminal His-tag kept; E. coli JM109; homotetramer
T1 sequence (A0A171J5T1 1-426): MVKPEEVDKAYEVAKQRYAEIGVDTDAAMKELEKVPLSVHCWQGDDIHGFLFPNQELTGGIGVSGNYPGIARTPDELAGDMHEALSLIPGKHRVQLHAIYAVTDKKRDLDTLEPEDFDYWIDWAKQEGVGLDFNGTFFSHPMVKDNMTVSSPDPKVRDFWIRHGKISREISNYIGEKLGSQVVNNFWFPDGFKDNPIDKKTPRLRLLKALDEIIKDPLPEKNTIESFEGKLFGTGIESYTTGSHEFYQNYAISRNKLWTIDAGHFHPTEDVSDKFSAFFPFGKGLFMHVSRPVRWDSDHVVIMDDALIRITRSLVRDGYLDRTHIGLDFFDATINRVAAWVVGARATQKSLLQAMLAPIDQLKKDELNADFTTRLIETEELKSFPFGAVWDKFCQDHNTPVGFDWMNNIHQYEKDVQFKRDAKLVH

[2] = target: T1, LrL-RhI (L. rhamnosus Probio-M9 L-rhamnose isomerase); assay: as above; format: binding; conditions: 30% (w/v) D-allulose soak; Mn2+; crystals at pH 6.5; catalytic site; also a surface site
[3] = target: the molecule itself; assay: crystal structure; sitting-drop vapor diffusion at 20 C, 0.1 M MES pH 6.5, 15% PEG550MME; LrL-RhI alone and crystals soaked in 30% (w/v) L-rhamnose, D-allulose or D-allose; space group P212121, four molecules in the asymmetric unit

OC[C@H]1OC(O)[C@H](O)[C@H](O)[C@@H]1O (stereo partly drawn) [D-allose]
X-ray crystal structure of the complex (soaking), 1.71 Å [1]: The bound D-allose exhibits a pyranose form and appears to be β-D-allopyranose

OC[C@]1(O)OC[C@@H](O)[C@@H](O)[C@H]1O [D-allulose]
X-ray crystal structure of the complex (soaking), 1.73 Å [2]: The bound D-allulose shows a ring-opened structure.

B1: L-rhamnose isomerase from Lactobacillus rhamnosus Probio-M9 (enzyme, UniProt A0A171J5T1 1-426, looked up)
chain: MVKPEEVDKAYEVAKQRYAEIGVDTDAAMKELEKVPLSVHCWQGDDIHGFLFPNQELTGGIGVSGNYPGIARTPDELAGDMHEALSLIPGKHRVQLHAIYAVTDKKRDLDTLEPEDFDYWIDWAKQEGVGLDFNGTFFSHPMVKDNMTVSSPDPKVRDFWIRHGKISREISNYIGEKLGSQVVNNFWFPDGFKDNPIDKKTPRLRLLKALDEIIKDPLPEKNTIESFEGKLFGTGIESYTTGSHEFYQNYAISRNKLWTIDAGHFHPTEDVSDKFSAFFPFGKGLFMHVSRPVRWDSDHVVIMDDALIRITRSLVRDGYLDRTHIGLDFFDATINRVAAWVVGARATQKSLLQAMLAPIDQLKKDELNADFTTRLIETEELKSFPFGAVWDKFCQDHNTPVGFDWMNNIHQYEKDVQFKRDAKLVH
notes: L-rhamnose isomerase (putative LrL-RhI) of Lactobacillus rhamnosus Probio-M9, 426 amino acid residues, 48707 Da; also called LrL-RhI; L-RhI; not shown: His-tag, C-terminal, kept
stoichiometry N [3]: 4
